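Cells were grown in 96-well plates and exposed to each compound for 48 hours at five concentrations; endpoints were interpolated linearly between bracketing concentrations, or set to the highest concentration if not reached. Abbreviation: GI50, concentration required for 50% inhibition of growth. TGI denotes the concentration required for complete inhibition of growth.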
What was measured:
Assay in all cases: NCI anticancer screen, dose series, 48 h
[1] = system: LOX IMVI melanoma
[2] = system: HS 578T breast
[3] = system: UO-31 renal
[4] = system: NCI/ADR-RES ovarian
[5] = system: NCI-H23 lung
[6] = system: SNB-75 CNS
[7] = system: SK-OV-3 ovarian
[8] = system: MOLT-4 leukemia
[9] = system: A549 NSCLC
[10] = system: MCF7 breast
[11] = system: TK-10 renal
[12] = system: K-562 leukemia
[13] = system: HCT-15 colon
[14] = system: SK-MEL-28 melanoma
[15] = system: SK-MEL-5 melanoma
[16] = system: OVCAR-5 ovarian
[17] = system: OVCAR-3 ovarian
[18] = system: HT29 colon
[19] = system: 786-0 renal
[20] = system: HCC-2998 colon
[21] = system: HL-60(TB) leukemia
[22] = system: NCI-H522 lung
[23] = system: SF-539 CNS
[24] = system: CAKI-1 renal
[25] = system: ACHN renal
[26] = system: MDA-MB-231 breast
[27] = system: SK-MEL-2 melanoma
[28] = system: BT-549 breast
[29] = system: T-47D breast

Cn1c2ccccc2c2nnc(N/N=C/c3ccccn3)nc21
TGI [1]: 3.33 µM
GI50 [2]: 2060 nM
TGI [2]: 82.9 µM
GI50 [3]: 361 nM
TGI [3]: 5.3 µM
GI50 [4]: 336 nM
TGI [4]: 8.89 µM
GI50 [5]: 382 nM
TGI [5]: > 22.6 µM
GI50 [6]: 1090 nM
TGI [6]: 6.78 µM
GI50 [7]: 421 nM
TGI [7]: 21.9 µM
GI50 [8]: 271 nM
GI50 [9]: 461 nM
TGI [9]: > 27.5 µM
GI50 [10]: 285 nM
TGI [10]: 6.59 µM
GI50 [11]: 413 nM
TGI [11]: > 57.8 µM
GI50 [12]: 1750 nM
TGI [12]: > 39.6 µM
GI50 [13]: 374 nM
TGI [13]: > 100 µM
GI50 [14]: 494 nM
TGI [14]: 26.6 µM
GI50 [15]: 240 nM
TGI [15]: 806 nM
GI50 [16]: 1270 nM
TGI [16]: > 72.4 µM
GI50 [17]: 489 nM
TGI [17]: > 33 µM
GI50 [18]: 529 nM
TGI [18]: > 100 µM
GI50 [19]: 256 nM
TGI [19]: 758 nM
GI50 [20]: 529 nM
TGI [20]: > 63.8 µM
GI50 [21]: 222 nM
TGI [21]: 3.85 µM
GI50 [22]: 574 nM
TGI [22]: 33 µM
GI50 [23]: 284 nM
TGI [23]: 854 nM
GI50 [24]: 264 nM
TGI [24]: 1190 nM
GI50 [25]: 350 nM
TGI [25]: > 21.4 µM
GI50 [26]: 478 nM
TGI [26]: 38.1 µM
GI50 [27]: 953 nM
TGI [27]: 16.9 µM
GI50 [28]: 452 nM
TGI [28]: > 38.9 µM
GI50 [29]: 392 nM
TGI [29]: 10.8 µM
